Measurements from patent publication US6991908B1, “Antiobestic agents methods for screening antiobestic agents and kits comprising same” (Takeda Chemical Industries, Ltd., priority 1998, dated 2006).
Positions of bridges follow the written chain, without caps; N, C: chain ends. No end group written: not given here.

Assays:
human SLC-1 [1] = biological target: T1, human SLC-1 (Homo sapiens, UniProt Q99705); test: Receptor binding test using [125I]-labeled MCH(4-19) and human SLC-1-expression CHO cell membrane fraction; conditions: various membrane fraction concentrations; FIG. 9
T1 construct: expressed in transfected cells; host or cells: CHO dhfr- cells, plasmid pAKK0-hSLC-1(S) or pAKK0-hSLC-1(L)
T1 sequence (Q99705 with tags, fused parts or gaps): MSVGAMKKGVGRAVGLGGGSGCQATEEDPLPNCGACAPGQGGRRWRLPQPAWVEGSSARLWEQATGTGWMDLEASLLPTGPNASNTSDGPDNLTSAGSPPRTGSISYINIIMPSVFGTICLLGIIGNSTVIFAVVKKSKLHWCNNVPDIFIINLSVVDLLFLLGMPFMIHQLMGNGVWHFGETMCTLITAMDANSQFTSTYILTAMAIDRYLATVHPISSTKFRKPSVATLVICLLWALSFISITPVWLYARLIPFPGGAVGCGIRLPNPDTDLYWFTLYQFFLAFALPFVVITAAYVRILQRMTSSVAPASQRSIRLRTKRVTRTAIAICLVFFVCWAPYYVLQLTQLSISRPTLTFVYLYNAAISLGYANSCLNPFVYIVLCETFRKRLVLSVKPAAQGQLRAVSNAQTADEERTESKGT
Method: The cell membrane fraction prepared from human SLC-1-expression CHO cells according to EXAMPLE 16 was diluted with an assay buffer (25 mM Tris-HCl, 1 mM EDTA (ethylene diamine tetra acetic acid), 0.1% BSA (bovine serum albumin), 0.25 mM PMSF (phenylmethylsulfonyl fluoride), 1 μg/ml pepstatin, 20 μg/ml leupeptin, 10 μg/ml phosphoramidon, pH 7.5) in various concentration.

rat SLC-1 [2] = biological target: T2, rat SLC-1 (Rattus norvegicus, UniProt P97639); test: cAMP synthesis inhibitory activity on rat SLC-1-expression CHO cells (forskolin-stimulated, cAMP EIA); assay type: cell-based; conditions: 2 μM forskolin
T2 construct: expressed in transfected cells; host or cells: CHO dhfr- cells, plasmid pAKK0-SLC-1, mainly clone #44
T2 sequence (P97639 whole entry): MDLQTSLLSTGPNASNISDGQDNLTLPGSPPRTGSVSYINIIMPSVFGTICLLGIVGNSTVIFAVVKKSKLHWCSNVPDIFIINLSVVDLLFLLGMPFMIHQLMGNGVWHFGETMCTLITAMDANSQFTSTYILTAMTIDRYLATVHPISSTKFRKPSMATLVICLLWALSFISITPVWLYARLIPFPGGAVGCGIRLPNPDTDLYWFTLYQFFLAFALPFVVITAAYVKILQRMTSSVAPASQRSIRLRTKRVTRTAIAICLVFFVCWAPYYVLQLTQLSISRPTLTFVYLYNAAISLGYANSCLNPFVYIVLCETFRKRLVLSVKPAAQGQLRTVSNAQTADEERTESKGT
Method: The CHO/SLC-1 cells prepared in EXAMPLE 4 and mock CHO cells were inoculated on a 24-well plate in 5×10^4 cells/well. After incubation for 48 hours, the cells were washed with Hanks' balanced salt solution (pH 7.4) supplemented with 0.2 mM 3-isobutylmethylxanthine, 0.05% BSA and 20 mM HEPES (hereinafter Hanks' balanced salt solution (pH. 7.4) supplemented with 0.2 mM 3-isobutylmethylxanthine, 0.05% BSA and 20 mM HEPES is referred to as a reaction buffer). Thereafter, 0.5 ml of the reaction buffer was added to the cells, which was kept warm in the medium for 30 minutes. The reaction buffer was removed and 0.25 ml of a fresh reaction buffer was added to the cells. Then, 0.25 ml of the reaction buffer containing the HPLC fraction and 2 μM for skolin was added to the cells followed by reacting at 37° C. for 24 minutes. By adding 100 μl of 20% perchloric acid, the reaction was terminated. The reaction mixture was then allowed to stand on ice for an hour to extract intracellular cAMP. The amount of cAMP in the extract was measured using a cAMP EIA kit (Amersham Pharmacia Biotech). As a result, the cAMP synthesis inhibitory activity specific to the CHO/SLC-1 cells was detected in fractions #33, #34 and #35 (FIG. 1). In FIG. 1, taking as 100% the amount obtained by subtracting the intracellular cAMP amount when adding the reaction buffer from the intracellular cAMP amount when adding the forskolin-containing reaction buffer, the cAMP synthesis inhibitory activity was expressed by % in terms of the intracellular cAMP amount obtained by subtracting the intracellular cAMP amount when adding the reaction buffer from the intracellular cAMP amount when adding the HPLC fraction (a 1 μl aliquot of each fraction diluted to 100-fold with DMSO was added).
The CHO/SLC-1 cells selected in EXAMPLE 4 were inoculated on a 24-well plate in 5×10^4 cells/well followed by cultivation for 48 hours. […] The amount of cAMP in the extract was measured using cAMP EIA kit (Amersham Pharmacia Biotech).

human SLC-1 [3] = biological target: T1, human SLC-1; test: Arachidonic acid metabolite release activity on human SLC-1-expression CHO cells; assay type: cell-based; conditions: human SLC-1 expression cells (CHO/hSLC-1(S) or CHO/hSLC-1(L))
Method: The CHO/hSLC-1(S) strain or the CHO/hSLC-1(L) strain, which was human SLC-1-expression CHO cells selected in EXAMPLE 13, were inoculated on a 24-well plate in 5×10^4 cells/well. After incubation for 24 hours, [^3H] arachidonic acid was added in 0.25 μCi/well. Sixteen hours after the addition of [^3H] arachidonic acid, the cells were washed with Hanks' balanced salt solution (pH 7.4) containing 0.05% BSA and 20 mM HEPES. […] Hereinafter, Hanks' balanced salt solution (pH7.4) containing 0.05% BSA and 20 mM HEPES is referred to as a reaction buffer. After incubating at 37° C. for 60 minutes, 400 μl of the reaction solution was charged in a scintillator and the amount of [^3H] arachidonic acid metabolites released into the reaction solution was measured using a scintillation counter.

rat SLC-1 [4] = biological target: T2, rat SLC-1; test: Arachidonic acid metabolite release activity on rat SLC-1-expression CHO cells; assay type: cell-based
Method: The CHO/SLC-1 cells selected in EXAMPLE 4 were inoculated on a 24-well plate in 5×10^4 cells/well. After incubation for 24 hours, [^3H] arachidonic acid was added to each well in 0.25 μCi/well. Sixteen hours after the addition of [^3H] arachidonic acid, the cells were washed with Hanks' balanced salt solution (pH7.4) containing 0.05% BSA and 20 mM HEPES. […] Hereinafter Hanks' balanced salt solution (pH 7.4) containing 0.05% BSA and 20 mM HEPES is referred to as a reaction buffer. After incubating at 37° C. for 60 minutes, 400 μl of the reaction solution was charged in a scintillator and the amount of [^3H]arachidonic acid metabolites released into the reaction solution was measured using a scintillation counter.

human SLC-1 [5] = biological target: T1, human SLC-1; test: cAMP synthesis inhibitory activity on human SLC-1-expression CHO cells; assay type: cell-based; conditions: human SLC-1 expression cells (CHO/hSLC-1(S) or CHO/hSLC-1(L)), 2 μM forskolin
Method: The CHO/hSLC-1(S) strain or the CHO/hSLC-1(L) strain, which was human SLC-1-expression CHO cells selected in EXAMPLE 13, was inoculated on a 24-well plate in 5×10^4 cells/well followed by cultivation for 48 hours. The cells were then washed with Hanks' balanced salt solution (pH 7.4) containing 0.2 mM 3-isobutylmethylxanthine, 0.05% BSA and 20 mM HEPES (hereinafter Hanks' balanced salt solution (pH 7.4) containing 0.2 mM 3-isobutylmethylxanthine, 0.05% BSA and 20 mM HEPES is referred to as a reaction buffer). Subsequently, 0.5 ml of the reaction buffer was added to the cells, which was maintained in the medium for 30 minutes. The reaction buffer was removed and 0.25 ml of a fresh reaction buffer was added to the cells. […] By adding 100 μl of 20% perchloric acid, the reaction was terminated. Next, the reaction mixture was allowed to stand on ice for an hour to extract intracellular cAMP. The amount of cAMP in the extract was measured using cAMP EIA kit (Amersham Pharmacia Biotech).

rat SLC-1 [6] = biological target: T2, rat SLC-1; test: GTPγS binding activity to rat SLC-1-expression CHO cell membrane fraction (Example 9); assay type: biochemical
Method: First, preparation of the membrane fraction is described. To 1×10^8 CHO/SLC-1 cells was added 10 ml of a homogenate buffer (10 mM NaHCO3, 5 mM EDTA, 0.5 mM PMSF, 1 μg/ml pepstatin, 4 μg/ml E64, 20 μg/ml leupeptin), followed by cell disruption with a polytron (12,000 rpm, 1 min.). The disrupted cells were then centrifuged (1,000 g, 15 mins.) to give the supernatant. Next, the supernatant was subjected to ultracentrifugation (Beckman type 30 rotor, 30,000 rpm, 1 hour). The resulting precipitate was used as a rat SLC-1-expression CHO cell membrane.
The GTPyS binding activity was assayed as follows. The rat SLC-1-expression CHO cell membrane fraction was diluted with a buffer for membrane dilution (50 mM Tris-hydrochloride buffer (pH 7.4), 5 mM MgCl2, 150 mM NaCl, 1 μM GDP) to make a cell membrane fraction solution for assay having a protein concentration of […]. […] The resulting solution mixture was kept at 25° C. for an hour. The mixture was filtrated through a filter. After washing twice with 1.5 ml of a washing buffer (50 mM Tris-hydrochloride buffer (pH 7.4), 5 mM MgCl2, 1 mM EDTA, 0.1% BSA), radioactivity of the filter was measured using a liquid scintillation counter.

human SLC-1 [7] = biological target: T1, human SLC-1; test: GTPγS binding activity using human SLC-1-expression CHO cell membrane fraction (Example 16); assay type: biochemical
Method: A human SLC-1-expression CHO cell membrane fraction was prepared by the following procedure. Human SLC-1-expression CHO cells (1×10^8 cells) were suspended in phosphate buffered saline (pH 7.4) supplemented with 5 mM EDTA (ethylene diamine tetra acetic acid) followed by centrifugation. after 10 ml of a homogenate buffer (10 mM NaHCO3, 5 mM EDTA, pH 7.5) was added to the cell pellets, the mixture was homogenized with a polytron homogenizer. the homogenate was then centrifuged at 400×g for 15 minutes. the resulting supernatant was further centrifuged at 100,000×g for an hour to give membrane fraction precipitates. the precipitates were suspended in 2 ml of an assay buffer (50 mM Tris-HCl (pH 7.5), 1 mM EDTA, 0.1% BSA (bovine serum albumin), 10 mM MgCl2, 100 mM NaCl, 1 mM GDP (guanosine 5′-diphosphate), 0.25 mM PMSF (phenylmethylsulfonyl fluoride), 1 μg/ml pepstatin, 20 μg/ml leupeptin, 10 μg/ml phosphoramidon] and the suspension was centrifuged at 100,000×g for an hour. the cell membrane recovered as precipitates was resuspended in 20 ml of the assay buffer. after dispensing, the suspension was stored at −80° C., which may be thawed every time at use.

Row | Compound | specific binding (SB) to the cell membrane fraction (human SLC-1 [1]) | concentration at which the amount of intracellular cAMP was obviously reduced (rat SLC-1 [2]) [nM] | cAMP synthesis (production) inhibitory activity, dose dependence (rat SLC-1 [2]; FIG. 5) | cAMP synthesis (production) inhibitory activity, dose dependence (rat SLC-1 [2]; FIG. 5, listed as rat MCH) | arachidonic acid metabolite release activity, dose dependence (human SLC-1 [3]) | concentration at which apparent release of arachidonic acid metabolites occurred (rat SLC-1 [4]; 37° C. 60 minutes) [nM] | arachidonic acid metabolite release, dose dependence (rat SLC-1 [4]; FIG. 6) | amount of intracellular cAMP, dose dependence (human SLC-1 [5]) | amount of [35S]-GTPγS bound to the membrane fraction, dose dependence (rat SLC-1 [6]) | EC50 (rat SLC-1 [6]; 25° C. 1 hour, read-out: concentration inducing 50% binding of [35S]-GTPγS) [pM] | amount of [35S]-GTPγS bound, dose dependence (human SLC-1 [7])
1 | [^125I]-[N-(3-(4-Hydroxy-3-iodophenyl)propionyl)-Met^4]-MC H(4-19) ({3‑(4-hydroxy-3-(125I)iodophenyl)propionyl}-MLRCMLGRVYRPCWQV; disulfide 4-13) [[^125I]-labeled MCH(4-19)] | recognized dependent on the concentration of the membrane fraction |  |  |  |  |  |  |  |  |  | 
2 | CSCC[C@@H]1NC(=O)[C@@H](NC(=O)[C@H](CCCNC(=N)N)NC(=O)[C@H](CC(C)C)NC(=O)[C@H](CCSC)NC(=O)[C@H](CC(=O)O)NC(=O)[C@H](Cc2ccccc2)NC(=O)[C@@H](N)CC(=O)O)CSSC[C@@H](C(=O)N[C@@H](Cc2c[nH]c3ccccc23)C(=O)N[C@@H](CCC(N)=O)C(=O)N[C@H](C(=O)O)C(C)C)NC(=O)[C@@H]2CCCN2C(=O)[C@H](CCCNC(=N)N)NC(=O)[C@H](Cc2ccc(O)cc2)NC(=O)[C@H](C(C)C)NC(=O)[C@H](CCCNC(=N)N)NC(=O)CNC(=O)[C@H](CC(C)C)NC1=O [MCH] |  | 0.1 | decreased dose-dependently | showed the inhibitory activity dose-dependently | showed the arachidonic acid metabolite release activity dose-dependently | 3 | dose-dependently released | decreased dose-dependently | dose-dependently increased | ~500 | increased dose-dependently
